Results published in patent US10568893B2, “Methods for treating inflammation, autoimmune disorders and pain” (BRIGHAM YOUNG UNIVERSITY, priority 2013, dated 2020).

Experiments:
[1] = system: IL1A (Interleukin-1 alpha); assay: Inflammation gene regulation, mRNA q-PCR panel; assay type: cell-based; details: mRNA by q-PCR, 8 hours treatment, primary human MSC (dendritic cells also described); CSA-13 at 5.0 μM
Text: (§1) Cells were purchased from Lonza.com and used fresh for each test using recommended media and culture conditions. After treatment, mRNA was isolated using Qiagen RNeasy Mini Kit®, and quantified using a NanoDrop 2000® by UV at 260 nm and 260/280 ratio for purity. cDNA was made using a First Strand Kit® from SABiosciences and processed for real time PCR using a kit from the same company for selected analysis of wound healing pathways. Results from q-PCR were uploaded to the SABiosciences site and to Ingenuity.com web site for analysis and pathway mapping. On day 1, primary human MSC cells were plated at 200,000 cells/well using 6-well plates with 3 ml of recommended media—hMSC Basal Medium+BulletKit (50 ml Growth Supplement, 10 ml L-Glutamine and 0.5 ml Gentamicin Sulfate Amphotercin-B) for 24 hours. Only early passages of cells were used, and never from frozen stock. On day 2, cells were treated with compounds dissolved in DMSO diluted 1:1000 or more to avoid effects of the solvent. […] Treatment lasted 8 hours, and was followed by RNA isolation using QIAGEN RNeasy Mini Kit® (74104). RNA was measured at 260/280 nm using a NanoDrop 2000® and normalized to 2.4 ng per well, cDNA preparation was done using QIAGEN First Strand kit 330401. q-PCR was run as absolute quantification and threshold set at 0.1 units. Dendritic cells were plated at 500,000 cells/well using 24-well plate with 500 μl of Lonza LGM-3 Complete Growth Medium with and without compound. Treatment lasted 8 hours, and was followed by RNA isolation using QIAGEN RNeasy Mini Kit® (74104). RNA was measured at 260/280 nm using NanoDrop2000® and normalized to 2.4 ng per well, cDNA preparation was done using QIAGEN First Strand kit 330401. PCR was run as absolute quantification and threshold set at 0.1 units.

[2] = system: IL1B (Interleukin-1 beta); assay: Inflammation gene regulation, mRNA q-PCR panel; assay type: cell-based; details: mRNA by q-PCR, 8 hours treatment, primary human MSC (dendritic cells also described); CSA-13 at 5.0 μM
Text: as §1

[3] = system: IRAK2 (Interleukin-1 receptor-associated kinase 2); assay: Inflammation gene regulation, mRNA q-PCR panel; assay type: cell-based; details: mRNA by q-PCR, 8 hours treatment, primary human MSC (dendritic cells also described); CSA-13 at 5.0 μM
Text: as §1

[4] = system: NFKB1 (Nuclear factor of kappa light polypeptide gene enhancer in B-cells 1); assay: Inflammation gene regulation, mRNA q-PCR panel; assay type: cell-based; details: mRNA by q-PCR, 8 hours treatment, primary human MSC (dendritic cells also described); CSA-13 at 5.0 μM
Text: as §1

[5] = system: NFKB2 (Nuclear factor of kappa light polypeptide gene enhancer in B-cells 2); assay: Inflammation gene regulation, mRNA q-PCR panel; assay type: cell-based; details: mRNA by q-PCR, 8 hours treatment, primary human MSC (dendritic cells also described); CSA-13 at 5.0 μM
Text: as §1

[6] = system: NFKBIA (Nuclear factor of kappa light polypeptide gene enhancer in B-cells inhibitor, alpha); assay: Inflammation gene regulation, mRNA q-PCR panel; assay type: cell-based; details: mRNA by q-PCR, 8 hours treatment, primary human MSC (dendritic cells also described); CSA-13 at 5.0 μM
Text: as §1

[7] = system: TLR2 (Toll-like receptor 2); assay: Inflammation gene regulation, mRNA q-PCR panel; assay type: cell-based; details: mRNA by q-PCR, 8 hours treatment, primary human MSC (dendritic cells also described); CSA-13 at 5.0 μM
Text: as §1

[8] = system: TLR4 (Toll-like receptor 4); assay: Inflammation gene regulation, mRNA q-PCR panel; assay type: cell-based; details: mRNA by q-PCR, 8 hours treatment, primary human MSC (dendritic cells also described); CSA-13 at 5.0 μM
Text: as §1

[9] = system: TLR6 (Toll-like receptor 6); assay: Inflammation gene regulation, mRNA q-PCR panel; assay type: cell-based; details: mRNA by q-PCR, 8 hours treatment, primary human MSC (dendritic cells also described); CSA-13 at 5.0 μM
Text: as §1

[10] = system: TLR8 (Toll-like receptor 8); assay: Inflammation gene regulation, mRNA q-PCR panel; assay type: cell-based; details: mRNA by q-PCR, 8 hours treatment, primary human MSC (dendritic cells also described); CSA-13 at 5.0 μM
Text: as §1

[11] = system: TLR9 (Toll-like receptor 9); assay: Inflammation gene regulation, mRNA q-PCR panel; assay type: cell-based; details: mRNA by q-PCR, 8 hours treatment, primary human MSC (dendritic cells also described); CSA-13 at 5.0 μM
Text: as §1

[12] = system: TNF (Tumor necrosis factor); assay: Inflammation gene regulation, mRNA q-PCR panel; assay type: cell-based; details: mRNA by q-PCR, 8 hours treatment, primary human MSC (dendritic cells also described); CSA-13 at 5.0 μM
Text: as §1

[13] = system: TNFRSF1A (Tmor necrosis factor receptor superfamily member 1A); assay: Inflammation gene regulation, mRNA q-PCR panel; assay type: cell-based; details: mRNA by q-PCR, 8 hours treatment, primary human MSC (dendritic cells also described); CSA-13 at 5.0 μM
Text: as §1

[14] = system: alveolar bone loss; details: topical application; cited from earlier work

SMILES | Fold Regulation IL1A [1] | Fold Regulation IL1B [2] | Fold Regulation IRAK2 [3] | Fold Regulation NFKB1 [4] | Fold Regulation NFKB2 [5] | Fold Regulation NFKBIA [6] | Fold Regulation TLR2 [7] | Fold Regulation TLR4 [8] | Fold Regulation TLR6 [9] | Fold Regulation TLR8 [10] | Fold Regulation TLR9 [11] | Fold Regulation TNF [12] | Fold Regulation TNFRSF1A [13] | Alveolar bone loss [14]
CCCCCCCCOC(=O)CC[C@@H](C)[C@H]1CC[C@H]2[C@@H]3[C@H](OC(=O)CCN)C[C@@H]4C[C@H](OC(=O)CCN)CC[C@]4(C)[C@H]3C[C@H](OC(=O)CCN)[C@]12C [CSA-44] | −6.0325 | −28.5329 | −31.8021 | −3.2891 | −2.2766 | −52.206 | −15.7179 | −2.977 | −2.392 | −8.2256 | −1.8905 | −25.9588 | −2.2461 | 
CCCCCN(CCCCC)CCC[C@@H](C)[C@H]1CC[C@H]2[C@@H]3[C@H](OCCCN)C[C@@H]4C[C@H](OCCCN)CC[C@]4(C)[C@H]3C[C@H](OCCCN)[C@]12C [CSA-90] | −6.96 | −3.6734 | −52.0069 | −4.718 | −2.5474 | −26.0352 | −13.6933 | −3.4278 | −2.0885 | −4.1972 | −1.8613 | −4.8514 | −7.3196 | 
CN/C(=N/CCSCc1nc[nH]c1C)NC#N [cimetidine] |  |  |  |  |  |  |  |  |  |  |  |  |  | reduce alveolar bone loss
